According to PMC4663795, “Alkanols inhibit voltage-gated K^+ channels via a distinct gating modifying mechanism that prevents gate opening” (Scientific Reports, 2015):
Where “and” joins values, the source holds several entries; their conditions need not be identical. Identical values can stand only once. Like-named read-outs stand apart in the source and are kept apart here.

Assays:
Shaker-IR-W434F [1] = target: T1, Shaker-IR-W434F (Drosophila melanogaster, UniProt P08510, DEL6-46/W434F); test: cell-based; format: cell-based; details: for QV curve V1/2: voltage dependence of VSD movement; for gating charge immobilized (reduction in gating charge movement): general statement, no concentration given
T1 construct: expressed in transfected cells; host or cells: HEK293
Text: (§1) The N-terminal deletion Δ6–46 Shaker clone (Shaker-IR), which removes fast inactivation, was used in this study. The W434F mutation, which yields a non-conducting Shaker-IR-W434F channel, and the P475A mutation were introduced as described previously. All channel constructs were expressed using a pGW1 expression vector. The plasmid that codes for the green fluorescent protein, used to identify transfected cells, was purchased from Clontech (Palo Alto, CA, USA). Plasmid DNA for mammalian expression was obtained by amplification in XL2 Bluescript cells (Stratagene), and afterwards isolated using the endotoxin-free Maxiprep kit (Macherey-Nagel, Düren, Germany). The cDNA concentration was determined by UV absorption.
(§2) HEK293 cells were cultured in Modified Eagle’s Medium (MEM) supplemented with 10% fetal bovine serum, 1% penicillin/streptomycin and 1% non-essential amino acids (Invitrogen, Carlsbad, CA, USA). Cells were transiently transfected with the appropriate channel DNA plasmids using polyethyleneimine that was purchased from Sigma-Aldrich (St Louis, MO, USA), details of procedure was described previously.
(§3) Whole-cell ionic IK or gating IG current measurements were done at room temperature (20 to 23 °C) using an Axopatch-200B amplifier and the recordings were digitized with a Digidata-1200 A acquisition system (Molecular Devices, Sunnyvale, CA, USA). Both IK and IG recordings were digitized at 10 kHz sampling rate after passing a 5 KHz Bessel low-pass filter. Command voltages and data storage were controlled with pClamp10 software. Patch pipettes were pulled from 1.2 mm quick-fill borosilicate glass capillaries (World Precision Instruments, Sarasota, FL, USA) with a P-2000 puller (Sutter Instrument Co., Novato, CA, USA) and afterwards heat-polished, to have patch pipettes with a resistance of approximately 1.5 MOhm determined with the filled pipette in the bath solution.
(§4) For IK measurements the cells were constantly superfused with external bath solution that contained (in mM) NaCl 130, KCl 4, CaCl2 1.8, MgCl2 1, HEPES 10, Glucose 10, adjusted to pH 7.35 with NaOH. The patch pipettes were filled with internal solution containing (in mM) KCl 110, K4BAPTA 5, K2ATP 5, MgCl2 1, HEPES 10, adjusted to pH 7.2 with KOH. For IG measurements the monovalent cations were replaced with N-methyl-D-glucamine (NMG^+). The bath solution contained (in mM) NMG^+ 140, HEPES 10, Glucose 10, MgCl2 1, CaCl2 1.8, titrated to pH 7.35 with HCl. The pipette solution contained (in mM) NMG^+ 140, HEPES 10, EGTA 10, MgCl2 1, titrated to pH 7.2 with HCl. Junction potentials were zeroed with the filled pipette in the bath solution and experiments were excluded from analysis if the voltage error estimate exceeded 5 mV after series resistance compensation. For IG measurements, leak currents and remaining capacitive currents were subtracted online using a −P/6 protocol (using a holding potential of −95 mV). IK recordings were not leak corrected.
(§5) For the highest concentration of 1-BuOH tested (300 mM), the osmolarity of the extracellular solution for IK or IG recordings increased by approximately 300 mOsm resulting in a total osmolarity of ~640 mOsm. […] All compounds were applied to the cells using a pressurized fast perfusion system equipped with a quartz micromanifold (ALA scientific, Farmingdale, NY, USA), allowing rapid exchange of the external solutions.
(§6) Details of pulse protocols used to elicit IK or IG recordings were adjusted to determine the biophysical properties of each construct adequately and are shown in the figures or described in legends. All the graphs were built using SigmaPlot 11.0 (Systat Software Inc., San Jose, CA, USA).

Shaker-IR-P475A [2] = target: T2, Shaker-IR-P475A (Drosophila melanogaster, UniProt P08510, DEL6-46/P475A); test: cell-based; format: cell-based; details: for GV curve V1/2: from tail currents; for Hill coefficient of weighted τIKac concentration-response curve / IC50: weighted τIKac at +100 mV; for IC50: read-out: IC50 of acceleration of weighted τIKac
T2 construct: expressed in transfected cells; host or cells: HEK293
Text: as §1, §2, §3, §4, §5, §6

Shaker-IR channel = target: T3, Shaker-IR channel (Drosophila melanogaster, UniProt P08510, DEL6-46); test: cell-based; format: cell-based; details: for GV curve V1/2: voltage dependence of gate opening; for IC50: normalized steady-state IK amplitude at 0 mV, Hill fit, read-out: IC50 of ionic current (IK) inhibition; for Hill coefficient of IK inhibition concentration-response curve: steady-state IK at 0 mV
T3 construct: expressed in transfected cells; host or cells: HEK293
Text: as §1, §2, §3, §4, §5, §6

Shaker-IR-W434F-P475A = target: T4, Shaker-IR-W434F-P475A (Drosophila melanogaster, UniProt P08510, DEL6-46/P475A/W434F); format: cell-based
T4 construct: expressed in transfected cells; host or cells: HEK293
Text: as §1, §2, §3, §4, §5, §6

Shaker-IR-W434F [3] = target: T1, Shaker-IR-W434F; design: method as in PMID 11463634; details: cited from earlier work
Shaker-IR-P475A [4] = target: T2, Shaker-IR-P475A; details: cited from earlier work
[5] = integrated steady-state IGac normalized to control, read-out: IC50 of reduction in total gating charge
[6] = weighted τIGdeac at −90 mV, read-out: IC50 of acceleration of VSD deactivation time constant (τIGdeac)

T3 sequence (P08510 other isoform, or with tags, fused parts or gaps DEL6-46): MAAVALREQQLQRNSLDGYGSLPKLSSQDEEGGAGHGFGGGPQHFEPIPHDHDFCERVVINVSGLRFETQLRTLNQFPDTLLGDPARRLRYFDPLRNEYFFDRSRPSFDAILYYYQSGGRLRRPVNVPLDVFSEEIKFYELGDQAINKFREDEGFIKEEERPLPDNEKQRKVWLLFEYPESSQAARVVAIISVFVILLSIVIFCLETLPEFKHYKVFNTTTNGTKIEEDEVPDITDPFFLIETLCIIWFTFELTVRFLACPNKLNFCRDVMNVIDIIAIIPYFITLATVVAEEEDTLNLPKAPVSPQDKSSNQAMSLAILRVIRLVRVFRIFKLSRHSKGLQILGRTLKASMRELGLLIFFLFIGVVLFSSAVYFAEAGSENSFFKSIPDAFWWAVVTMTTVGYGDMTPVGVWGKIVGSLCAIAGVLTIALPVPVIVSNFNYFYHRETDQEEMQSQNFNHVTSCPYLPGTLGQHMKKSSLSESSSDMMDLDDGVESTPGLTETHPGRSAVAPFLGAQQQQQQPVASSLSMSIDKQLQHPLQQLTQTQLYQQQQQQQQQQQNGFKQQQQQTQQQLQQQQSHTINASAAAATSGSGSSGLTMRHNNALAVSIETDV
T4 sequence (P08510 other isoform, or with tags, fused parts or gaps DEL6-46/W434F/P475A): as the sequence (P08510 other isoform, or with tags, fused parts or gaps DEL6-46) above, with W393F, P434A counted along it
T1 sequence (P08510 other isoform, or with tags, fused parts or gaps DEL6-46/W434F): as the sequence (P08510 other isoform, or with tags, fused parts or gaps DEL6-46) above, with W393F counted along it
T2 sequence (P08510 other isoform, or with tags, fused parts or gaps DEL6-46/P475A): as the sequence (P08510 other isoform, or with tags, fused parts or gaps DEL6-46) above, with P434A counted along it

For `CCCCCCO` [1-HeOH, 1-Hexanol], the “Hill coefficient of gating charge reduction concentration-response curve” value (Shaker-IR-W434F [1]) was 1.5 ± 0.2, the “maximal reduction in charge movement” value (Shaker-IR-W434F [1]; 30 mM 1-HeOH) was about 12% and the “τIGdeac at −120 mV” value (Shaker-IR-W434F [1]; 30 mM 1-HeOH) was 0.53 ± 0.10 ms. The “QV curve V1/2” value (Shaker-IR-W434F [1]; 30 mM 1-HeOH) was −31.4 ± 0.9 mV, the “gating charge immobilized (reduction in gating charge movement)” value (Shaker-IR-W434F [1]) was 10% and the IC50 (Shaker-IR-W434F [1]; [5]) was 13.8 ± 1.6 mM. The “Hill coefficient of τIGdeac concentration-response curve” value (Shaker-IR-W434F [1]; weighted τIGdeac at −90 mV) was 1.6 ± 0.3, the IC50 (Shaker-IR-W434F [1]; [6]) was 3 ± 0.4 mM and the “effect on IK of the P475A mutant” value (Shaker-IR-P475A [2]) was “concentration-dependent increase in IK”. The “GV curve slope factor k” value (Shaker-IR-P475A [2]; 10 mM 1-HeOH) was 10.7 ± 0.6 mV, the “GV curve V1/2” value (Shaker-IR-P475A [2]; 10 mM 1-HeOH) was 64 ± 1 mV and the “GV curve slope factor k” value (Shaker-IR-P475A [2]; 30 mM 1-HeOH) was 6.6 ± 0.6 mV. The “GV curve V1/2” value (Shaker-IR-P475A [2]; 30 mM 1-HeOH) was 49 ± 1 mV, the “Hill coefficient of weighted τIKac concentration-response curve” value (Shaker-IR-P475A [2]) was 1.3 ± 0.3 and the IC50 (Shaker-IR-P475A [2]) was 4.6 ± 0.8 mM. The “GV curve slope factor k” value (Shaker-IR channel; 3 mM 1-HeOH) was 7.5 ± 0.9 mV, the “GV curve V1/2” value (Shaker-IR channel; 3 mM 1-HeOH) was −25.4 ± 1.2 mV and the “time constant of current recovery upon wash-out” value (Shaker-IR channel; after 3 mM 1-HeOH) was 4.8 ± 1.7 s. The “time constant of development of IK inhibition” value (Shaker-IR channel; application of 3 mM 1-HeOH) was 3.7 ± 0.7 s, the IC50 (Shaker-IR channel) was ~3 mM and 2.7 mM and the “Hill coefficient of IK inhibition concentration-response curve” value (Shaker-IR channel) was 1.13 ± 0.22. The “QV curve 1st comp V1/2” value (Shaker-IR-W434F-P475A; 30 mM 1-HeOH) was −35.3 ± 1.5 mV, the “QV curve 2nd comp V1/2” value (Shaker-IR-W434F-P475A; 30 mM 1-HeOH) was 50.2 ± 1.1 mV and the “QV curve 2nd comp k” value (Shaker-IR-W434F-P475A; 30 mM 1-HeOH) was 3.6 ± 1.4 mV.
For `Nc1ccncc1` [4-AP, 4-aminopyridine], the “loss of gating charge movement” value (Shaker-IR-W434F [1]; 1 mM 4-AP) is given as “approximately 10%”, the inhibition at 30 µM (Shaker-IR channel; HEK293, read-out: steady-state IK inhibition) is given as about 50% and the “reduction in gating charge movement” value (Shaker-IR-W434F [3]) is given as 10%. For the same compound, the “sensitivity of the P475A mutant to the drug” value (Shaker-IR-P475A [4]) was “insensitive”.
For `CCCCO` [1-BuOH, 1-Butanol], the “Hill coefficient of gating charge reduction concentration-response curve” value (Shaker-IR-W434F [1]) was 1.5 ± 0.2, the “maximal reduction in charge movement” value (Shaker-IR-W434F [1]; 300 mM 1-BuOH) was “approximately 10%” and the “τIGdeac at −120 mV” value (Shaker-IR-W434F [1]; 300 mM 1-BuOH) was 0.48 ± 0.08 ms. The “extra reduction of gating charge movement on addition to 4-AP” value (Shaker-IR-W434F [1]; 300 mM 1-BuOH in continued presence of 1 mM 4-AP) was “did not result in an extra reduction of gating charge movement”, the “QV curve V1/2” value (Shaker-IR-W434F [1]; 300 mM 1-BuOH) was −32.4 ± 3.4 mV and the “gating charge immobilized (reduction in gating charge movement)” value (Shaker-IR-W434F [1]) was 10%. For the same compound, the IC50 (Shaker-IR-W434F [1]; [5]) was 88 ± 2 mM, the “Hill coefficient of τIGdeac concentration-response curve” value (Shaker-IR-W434F [1]; weighted τIGdeac at −90 mV) was 1.3 ± 0.4 and the IC50 (Shaker-IR-W434F [1]; [6]) was 67 ± 1 mM. The “effect on IK of the P475A mutant” value (Shaker-IR-P475A [2]) was “concentration-dependent increase in IK”, the “GV curve slope factor k” value (Shaker-IR-P475A [2]; 100 mM 1-BuOH) was 9.6 ± 0.4 mV and the “GV curve V1/2” value (Shaker-IR-P475A [2]; 100 mM 1-BuOH) was 62 ± 1 mV. The “GV curve slope factor k” value (Shaker-IR-P475A [2]; 300 mM 1-BuOH) was 6.8 ± 0.7 mV, the “GV curve V1/2” value (Shaker-IR-P475A [2]; 300 mM 1-BuOH) was 50 ± 1 mV and the “Hill coefficient of weighted τIKac concentration-response curve” value (Shaker-IR-P475A [2]) was 1.5 ± 0.4. For the same compound, the IC50 (Shaker-IR-P475A [2]) was 58.8 ± 3 mM, the “GV curve slope factor k” value (Shaker-IR channel; 50 mM 1-BuOH) was 5.1 ± 0.7 mV and the “GV curve V1/2” value (Shaker-IR channel; 50 mM 1-BuOH) was −28.5 ± 2.3 mV. For the same compound, the “time constant of current recovery upon wash-out” value (Shaker-IR channel; after 50 mM 1-BuOH) was 7.6 ± 2.1 s, the “time constant of development of IK inhibition” value (Shaker-IR channel; application of 50 mM 1-BuOH) was 5.2 ± 1.2 s and the IC50 (Shaker-IR channel) was ~50 mM and 50 mM and 51.8 mM. The “Hill coefficient of IK inhibition concentration-response curve” value (Shaker-IR channel) was 0.92 ± 0.04, the “QV curve 1st comp V1/2” value (Shaker-IR-W434F-P475A; 300 mM 1-BuOH) was −39.2 ± 1.4 mV and the “QV curve 1st comp k” value (Shaker-IR-W434F-P475A; 300 mM 1-BuOH) was 16.2 ± 1.2 mV. For the same compound, the “QV curve 2nd comp V1/2” value (Shaker-IR-W434F-P475A; 300 mM 1-BuOH) was 52.2 ± 1.2 mV and the “QV curve 2nd comp k” value (Shaker-IR-W434F-P475A; 300 mM 1-BuOH) was 9.1 ± 1.1 mV.
